# Experiments:
# [1] = tested on: pERK in HCT-116 cells (KRAS G13D); assay: Phospho-ERK inhibition (AlphaLISA SureFire Ultra p-ERK 1/2), HCT116; assay type: cell-based, human; settings: HCT116 cells; for HCT116 pERK Ymin %: Ymin in brackets
# Method: (§1) All cancer cell lines (A375, A101D, A2058, RKO, HT29 SK-MEL 30, IPC298, HepG2, HCT-116, Lovo, SWV620, SW480, NCI-H358, NCI-H2122, Calu-6, NCIH2087, NCIH1755, NCIH1666 and Mewo) were obtained from ATCC and cultured in RPMI-1640 medium (Gibco) supplemented with 5% heat inactivated fetal bovine serum (FBS, Wisent) at 37° C. under 5% CO2. Cells were maintained in T175 flasks (Greiner). They were passaged by removing the culture medium, washing once in 10 mL of room temperature Phosphate Buffered Saline (PBS; Wisent) and incubating at 37° C. with 2 mL of 0.05% Trypsin (Thermo-Fisher). Trypsin was then inactivated by adding complete growth medium and the cells were then replated in a T175 culture dish at the appropriate dilution. All cell lines were routinely tested for mycoplasma contamination. Tissue type and mutational status of each cell line can be found in Table B.
# (§2) AlphaLISA® SureFire® Ultra™ p-ERK 1/2 (Thr202/Tyr204) analysis was conducted on cells plated in 100 μL of complete RPMI-1640 growth medium in 96-well flat-bottomed transparent dishes (Costar) at a density indicated in Table C. Cells were maintained overnight at 37° C. under 5% CO2 before treatment with compounds' dilution series for one hour. The cell density in cells/cm^2 corresponds to cell number divided by the area of one well of a 96-well plate ([…]).
# (§3) In a dilution series 100 μL/well of test substance dilution prepared in complete RPMI-1640 growth media was added to the cells. The dilution series is selected so that ten concentrations cover a range from 10 μM to 0.33 nM. If necessary the initial concentration of 10 μM is increased to 100 μM or lowered to 1 μM (as in the case of A375 and H1666 cells, which are generally more sensitive to the compounds) and further dilution is carried out accordingly. The final concentration of DMSO in the assay is set at 0.5%.
# (§4) After treatment, media was removed and cells were lysed in 50 μL of 1× AlphaScreen Ultra Lysis Buffer (Perkin Elmer). The AlphaLISA® SureFire® Ultra™ p-ERK 1/2 (Thr202/Tyr2O4) (PerkinElmer) reactions were performed with 5 μL of cell lysate according to the manufacturer's specifications in 384-well proxyplates (Perkin Elmer) followed by overnight incubation of the reactions at room temperature in a humidified chamber. After completion of the reactions, the signals were recorded on an EnVision plate reader (Perkin Elmer) using built in AlphaLISA® settings.
# (§5) The effect of each compound dilution on the pERK signal was expressed in % inhibition and calculated as follows. An internal 100% inhibition control ([…] trametinib, cat #HY-10999; MedChem Express; CAS #871700-17-3) was included in each plate and used as a measure of pERK background. First, the value obtained for trametinib was subtracted from each data point. The average of DMSO (vehicle) controls (set as 0% inhibition) was established and used to calculate % inhibition: % inhibition=100*(1-((pERK signalcompound)/(pERK signalDMSO)))
# (§6) The ability of each compound to inhibit pERK signal was expressed as an IC50 value obtained by plotting the inhibition values for each data point of a dilution series and fitting the obtained curves using a log(agonist) versus response-variable slope (four parameters) function using GraphPadPrism (V7.0) or Dotmatics Screening Ultra platform.
# (§7) When present, paradoxical pERK induction is inferred from the negative % inhibition values observed in the pERK IC50 curves of a compound.
# [2] = tested on: pERK in SW480 cells (KRAS G12D); assay: Phospho-ERK inhibition (AlphaLISA), SW480; assay type: cell-based, human; settings: SW480 cells; for SW480 pERK Ymin %: Ymin in brackets; for IC50: class symbol before the bracket
# Method: as §1, §2, §3, §4, §5, §6, §7
# [3] = class symbol before the bracket
smiles,measurement,setting,value
Cc1c(Cl)cccc1S(=O)(=O)Nc1ccc(F)c(Nc2ncnc3ccc(-n4nc(C(=O)N5CCNCC5)c5ccccc54)nc23)c1F [Example 127],HCT116 pERK Ymin %,[1],−1.2%
same,IC50,[1]; [3],< 0.5 µM
same,SW480 pERK Ymin %,[2],−3.8%
same,IC50,[2],< 0.5 µM
NC(=O)c1ccc(-c2ccc3ncnc(Nc4c(F)ccc(NS(=O)(=O)c5ccccc5Cl)c4F)c3n2)cc1 [Example 81],HCT116 pERK Ymin %,[1],−4%
same,IC50,[1]; [3],1 to 10 µM
same,SW480 pERK Ymin %,[2],15%
same,IC50,[2],1 to 10 µM
COc1ccc(S(=O)(=O)Nc2ccc(F)c(Nc3ncnc4ccc(-n5cnc6nccnc65)nc34)c2F)c(C)c1 [Ex 60],HCT116 pERK Ymin %,[1],−10%
same,IC50,[1]; [3],1 to 10 µM
same,SW480 pERK Ymin %,[2],10%
same,IC50,[2],1 to 10 µM
COc1ccc(S(=O)(=O)Nc2ccc(F)c(Nc3ncnc4ccc(-c5ccc(OC)nc5)nc34)c2F)c(C)c1 [Example 71],HCT116 pERK Ymin %,[1],−4%
same,IC50,[1]; [3],1 to 10 µM
same,SW480 pERK Ymin %,[2],8%
same,IC50,[2],1 to 10 µM
COc1ccc(S(=O)(=O)Nc2ccc(F)c(Nc3ncnc4ccc(-c5cccc(CO)c5)nc34)c2F)c(C)c1 [Ex 74],HCT116 pERK Ymin %,[1],1%
same,IC50,[1]; [3],1 to 10 µM
same,SW480 pERK Ymin %,[2],3.3%
same,IC50,[2],1 to 10 µM
COc1ccc(S(=O)(=O)Nc2ccc(F)c(Nc3ncnc4ccc(-n5cnc6c(NC(C)=O)cccc65)nc34)c2F)c(C)c1 [Ex 79],HCT116 pERK Ymin %,[1],1.5%
same,IC50,[1]; [3],0.5 to 1 µM
same,SW480 pERK Ymin %,[2],9.4%
same,IC50,[2],0.5 to 1 µM
O=C(c1cn(-c2ccc3ncnc(Nc4c(F)ccc(NS(=O)(=O)c5ccccc5Cl)c4F)c3n2)c2ccccc12)N1CCOCC1 [Example 109],HCT116 pERK Ymin %,[1],−1.7%
same,IC50,[1]; [3],< 0.5 µM
same,SW480 pERK Ymin %,[2],−6.4%
same,IC50,[2],< 0.5 µM
NC(=O)c1cccc(-c2ccc3ncnc(Nc4c(F)ccc(NS(=O)(=O)c5ccccc5Cl)c4F)c3n2)c1 [Example 80],HCT116 pERK Ymin %,[1],11%
same,IC50,[1]; [3],1 to 10 µM
same,SW480 pERK Ymin %,[2],10%
same,IC50,[2],1 to 10 µM
COc1ccc(S(=O)(=O)Nc2ccc(F)c(Nc3ncnc4ccc(-c5cnc(OC)nc5)nc34)c2F)c(C)c1 [Ex 57],HCT116 pERK Ymin %,[1],-8%
same,IC50,[1]; [3],1 to 10 µM
same,SW480 pERK Ymin %,[2],-9%
same,IC50,[2],1 to 10 µM
COc1ccc(S(=O)(=O)Nc2ccc(F)c(Nc3ncnc4ccc(-c5cn[nH]c5)nc34)c2F)c(C)c1 [Ex 64],HCT116 pERK Ymin %,[1],4%
same,IC50,[1]; [3],1 to 10 µM
same,SW480 pERK Ymin %,[2],16%
same,IC50,[2],1 to 10 µM
COc1ccc(S(=O)(=O)Nc2ccc(F)c(Nc3ncnc4ccc(-c5ccncc5)nc34)c2F)c(C)c1 [Ex 63],HCT116 pERK Ymin %,[1],−2.1%
same,IC50,[1]; [3],1 to 10 µM
same,SW480 pERK Ymin %,[2],10%
same,IC50,[2],< 0.5 µM
COc1ccc(S(=O)(=O)Nc2ccc(F)c(Nc3ncnc4ccc(-n5cc(C(N)=O)c6ccccc65)nc34)c2F)c(C)c1 [Example 69],HCT116 pERK Ymin %,[1],−1%
same,IC50,[1]; [3],1 to 10 µM
same,SW480 pERK Ymin %,[2],3%
same,IC50,[2],1 to 10 µM
COc1ccc(S(=O)(=O)Nc2ccc(F)c(Nc3ncnc4ccc(-c5cnc6ccccc6c5)nc34)c2F)c(C)c1 [Ex 61],HCT116 pERK Ymin %,[1],−8%
same,IC50,[1]; [3],1 to 10 µM
same,SW480 pERK Ymin %,[2],3%
same,IC50,[2],1 to 10 µM
COc1ccc(S(=O)(=O)Nc2ccc(F)c(Nc3ncnc4ccc(-n5cnc6c([N+](=O)[O-])cccc65)nc34)c2F)c(C)c1 [Example 70],HCT116 pERK Ymin %,[1],−3%
same,IC50,[1]; [3],1 to 10 µM
same,SW480 pERK Ymin %,[2],5%
same,IC50,[2],1 to 10 µM
COc1ccc(S(=O)(=O)Nc2ccc(F)c(Nc3ncnc4ccc(-c5cnn(C)c5)nc34)c2F)c(C)c1 [Ex 65],HCT116 pERK Ymin %,[1],−7%
same,IC50,[1]; [3],10 to 30 µM
same,SW480 pERK Ymin %,[2],14%
same,IC50,[2],0.5 to 1 µM
COc1ccc(S(=O)(=O)Nc2ccc(F)c(Nc3ncnc4ccc(-n5ccnc5)nc34)c2F)cc1 [Ex 33],HCT116 pERK Ymin %,[1],5%
same,IC50,[1]; [3],1 to 10 µM
same,SW480 pERK Ymin %,[2],0%
same,IC50,[2],1 to 10 µM
Nc1cccc2c1nnn2-c1ccc2ncnc(Nc3c(F)ccc(NS(=O)(=O)c4ccccc4Cl)c3F)c2n1 [Example 92],HCT116 pERK Ymin %,[1],−4.6%
same,IC50,[1]; [3],< 0.5 µM
same,SW480 pERK Ymin %,[2],18%
same,IC50,[2],< 0.5 µM
N#Cc1cccc(-c2ccc3ncnc(Nc4c(F)ccc(NS(=O)(=O)c5ccccc5Cl)c4F)c3n2)c1 [Ex 77],HCT116 pERK Ymin %,[1],−8%
same,IC50,[1]; [3],1 to 10 µM
same,SW480 pERK Ymin %,[2],2%
same,IC50,[2],1 to 10 µM
N#Cc1ccc(-c2ccc3ncnc(Nc4c(F)ccc(NS(=O)(=O)c5ccccc5Cl)c4F)c3n2)cc1 [Ex 78],HCT116 pERK Ymin %,[1],−9%
same,IC50,[1]; [3],1 to 10 µM
same,SW480 pERK Ymin %,[2],1%
same,IC50,[2],1 to 10 µM
O=S(=O)(Nc1ccc(F)c(Nc2ncnc3ccc(-n4cnc5c(N6CC[C@@H](O)C6)nccc54)nc23)c1F)c1cccc(Cl)c1Cl [Example 512],IC50,[1]; class symbol,1 to 10 µM
O=S(=O)(Nc1ccc(F)c(Nc2ncnc3ccc(-n4cc(S(=O)(=O)N5CCN(c6ccccn6)CC5)c5ccccc54)nc23)c1F)c1cccc(Cl)c1Cl [Ex 377],IC50,[1]; class symbol,0.5 to 1 µM
Cc1c(F)cccc1S(=O)(=O)Nc1ccc(F)c(Nc2ncnc3ccc(-n4ncc5c4CCCN5CCO)nc23)c1F [Example 425],IC50,[1]; class symbol,0.5 to 1 µM
O=C1CCCN1c1cn(-c2ccc3ncnc(Nc4c(F)ccc(NS(=O)(=O)c5cccc(Cl)c5Cl)c4F)c3n2)c2ccccc12 [Example 511],IC50,[1]; class symbol,< 0.5 µM
Cc1c(F)cccc1S(=O)(=O)Nc1ccc(F)c(Nc2ncnc3ccc(-n4cnc5c(N(CCCO)CCCO)cccc54)nc23)c1F [Example 375],IC50,[1]; class symbol,< 0.5 µM
COc1cccc2c1ncn2-c1ccc2ncnc(Nc3c(F)ccc(NS(=O)(=O)c4cccc(Cl)c4Cl)c3F)c2n1 [Ex 449],IC50,[1]; class symbol,< 0.5 µM
CN(C)CCCS(=O)(=O)c1cn(-c2ccc3ncnc(Nc4c(F)ccc(NS(=O)(=O)c5cccc(Cl)c5Cl)c4F)c3n2)c2ccccc12 [Example 484],IC50,[1]; class symbol,< 0.5 µM
O=[N+]([O-])c1cn(-c2ccc3ncnc(Nc4c(F)ccc(NS(=O)(=O)c5cccc(Cl)c5Cl)c4F)c3n2)c2ccccc12 [Example 506],IC50,[1]; class symbol,1 to 10 µM
C[C@@H]1CN(C)C[C@H](C)N1S(=O)(=O)c1cn(-c2ccc3ncnc(Nc4c(F)ccc(NS(=O)(=O)c5cccc(Cl)c5Cl)c4F)c3n2)c2ccccc12 [Ex 459],IC50,[1]; class symbol,< 0.5 µM
O=S(=O)(Nc1ccc(F)c(Nc2ncnc3ccc(-n4cc(S(=O)(=O)N5CCN(CCOCCO)CC5)c5ccccc54)nc23)c1F)c1cccc(Cl)c1Cl [Ex 378],IC50,[1]; class symbol,< 0.5 µM
COCCCN(CCCOC)c1cccc2c1ncn2-c1ccc2ncnc(Nc3c(F)ccc(NS(=O)(=O)c4cccc(F)c4C)c3F)c2n1 [Example 384],IC50,[1]; class symbol,1 to 10 µM

# Source: patent US12139488B2, “Pyrido[3,2-d]pyrimidine compounds uses thereof for treating a proliferative disease” (Universite de Montreal, priority 2021, dated 2024)
